Patent US9447122B2, “Arginase inhibitors and methods of use thereof” (AstraZeneca AB, priority 2010, dated 2016)
Counter-ions that a name gives are not always drawn. Like-named read-outs stand apart in the source and are kept apart here.

Columns and labels:
human arginase I = target: T1, human arginase I (Homo sapiens, UniProt P05089); test: Arginase inhibition, QuantiChrom colorimetric urea assay, IC50 converted to Ki; format: biochemical
T1 sequence (P05089 1-322): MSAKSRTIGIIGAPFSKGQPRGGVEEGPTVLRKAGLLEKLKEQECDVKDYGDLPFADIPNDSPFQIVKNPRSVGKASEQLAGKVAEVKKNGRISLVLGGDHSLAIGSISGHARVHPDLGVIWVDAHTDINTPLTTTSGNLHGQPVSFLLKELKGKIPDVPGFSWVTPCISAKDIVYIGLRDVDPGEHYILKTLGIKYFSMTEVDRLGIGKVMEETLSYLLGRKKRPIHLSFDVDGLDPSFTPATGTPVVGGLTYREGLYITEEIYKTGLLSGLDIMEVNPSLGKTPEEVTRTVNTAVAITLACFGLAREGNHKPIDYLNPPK
Description: (§1) For some compounds, their inhibitory potency at pH 7.5 was compared to the inhibitory potency of ABH at pH 7.5.
(§2) Quantitative determination of arginase activity was performed in a 96-well format by a colorimetric method using the QuantiChrom™ Arginase Assay Kit available from BioAssay Systems (Hayward, Calif., Catalog No. DARG-200) according to the manufacturer's protocol. Modifications were made to reagent quantities to suit the assaying of a highly purified sample.
(§3) The intensity of the color was directly proportional to the arginase activity in the sample.
(§4) The rate of urea production was measured in the presence of twelve different concentrations of each potential inhibitor compound. In a typical assay, seven different compounds were tested relative to a control inhibitor (e.g. ABH) against one enzyme (either human ArgI or human ArgII) at a particular pH (either 9.5 or 7.5). The pH of the solution was controlled using an appropriate pH buffering compound at 60 mM concentrations; for example, 60 mM glycine (pH 9.5) or 60 mM HEPES (pH 7.5). The half maximal inhibitory concentration (IC50) was determined by constructing a dose-response curve.

human arginase II = target: T2, human arginase II (Homo sapiens, UniProt P78540); test: as above; format: biochemical
T2 sequence (P78540 23-354): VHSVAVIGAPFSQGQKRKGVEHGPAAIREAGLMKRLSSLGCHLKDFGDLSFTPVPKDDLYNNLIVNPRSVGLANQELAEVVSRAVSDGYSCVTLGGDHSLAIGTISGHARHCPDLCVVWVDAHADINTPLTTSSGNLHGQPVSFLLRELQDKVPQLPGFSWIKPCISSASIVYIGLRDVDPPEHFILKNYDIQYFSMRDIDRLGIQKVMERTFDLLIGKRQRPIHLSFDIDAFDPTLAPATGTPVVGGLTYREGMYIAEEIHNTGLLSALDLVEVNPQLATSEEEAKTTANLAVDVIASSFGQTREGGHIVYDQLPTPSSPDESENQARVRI
Description: as §1, §2, §3, §4

Arg I and/or Arg II = test: pH effect: inhibitory potency at pH 7.5 compared with pH 9.5; format: biochemical, human; conditions: for increased potency for at least one isozyme: Table 2, pH 7.5 vs pH 9.5; for potency at pH 7.5 as compared to pH 9.5, arginases: both or at least one of the arginases
Description: as §1
as §4, with “curve. As IC50 values are dependent upon the measurement conditions, the IC50 values were converted to the inhibitor binding affinity (K1) using the Cheng-Prusoff equation and the affinity constant (Km) of L-arginine which was estimated with the same activity assay (see, e.g., Cheng et al., 1973, Biochem. Pharmacol. 22:3099-108).” for “curve.”

arginase = target: T3, arginase (Homo sapiens, UniProt P78540); conditions: literature; cited from earlier work
T3 sequence (P78540 23-354): T2 sequence (P78540 23-354)

[1] = test system: opossum internal anal sphincter muscle; conditions: cited from earlier work
guinea pigs = conditions: nebulizer treatment, allergic asthma model; cited from earlier work
[2] = test system: rabbit and human penile corpus cavernosum; conditions: rabbit and human tissue; cited from earlier work
live male rabbits = conditions: cited from earlier work
[3] = test system: corpus cavernosum of the diabetic person; conditions: ex vivo; cited from earlier work
female rabbits = conditions: cited from earlier work
[4] = test system: animal model of multiple sclerosis (experimental autoimmune encephalomyelitis); conditions: cited from earlier work
Rats = test: Myocardial ischemia-reperfusion injury, infarct size IA/AR; format: in vivo; conditions: rat, 2 hrs reperfusion
Description: Rats were intraperitoneally (IP) anesthetized to effect with pentobarbital (˜50 mg/kg), shaved and positioned in dorsal recumbence, intubated and ventilated (˜90 breaths/min, ˜2.5 mL tidal volume with 95% O2/5% CO2) with an adjustable small animal ventilator (Harvard Apparatus). Anesthesia was maintained with a continuous sodium pentobarbital infusion (to effect, ˜3 to 5 mg/kg/h, IV) until completion of the study via an indwelling catheter placed in a peripheral vein (e.g., femoral). Body temperature was continuously monitored throughout the duration of the surgical/experimental procedures via a rectal probe, and was maintained within the physiological range via a heated temperature-controlled (closed-loop) small animal surgical table/control unit (Vestavia Scientific).
Subsequently, transthoracic needle electrodes forming a single-lead ECG (e.g., lead II) were placed. Once a surgical plane of anesthesia had been reached, a femoral artery was isolated, dissected free from the surrounding tissue, and cannulated with a 2F high-fidelity micromanometer catheter (Millar Instruments). In order to record arterial/systemic pressures, this catheter was advanced towards the abdominal aorta. An in-dwelling catheter was also placed in a vein (i.e., jugular) for administration of the test article/vehicle, or stains (see below).
Finally, the animals were placed in right-lateral recumbence and the heart was exposed by a left-side thoracotomy/pericardiotomy. Ligatures were loosely placed (using a taper-point needle) around the proximal section of the left anterior descending artery (LAD). Tightening of these snares (via small pieces of polyethylene tubing) rendered a portion of myocardium temporarily ischemic.
Following surgical preparation, the animals were allowed to reach hemodynamic stability (for approximately 15 min), and baseline data was collected. It should be noted that in order to ensure experimental/data homogeneity, all animals must have satisfied the following entry criteria: heart rate >320 bpm and mean arterial pressure >80 mmHg. The anesthetic regime may be adjusted in order to ensure proper anesthesia/analgesia and to satisfy such inclusion criteria.
After hemodynamic stabilization and baseline measurements, the animals were treated with either vehicle or test article delivered as an intravenous bolus. Subsequently (approximately 15 min post-dosing), the animals were subjected to an acute 30 min ischemic insult by tightening of the LAD coronary artery snare. Myocardial ischemia was visually confirmed both by the appearance of cyanotic changes in distal distributions of the LAD as well as by the onset of electrocardiographic changes. After approximately 30 min of induced ischemia, the coronary snares were released and the previously ischemic myocardium was reperfused for up to 2 hrs. Treatments were not administered during either the ischemia and/or reperfusion periods. It should also be noted that in order to minimize any possible confounding effects on indices of myocardial injury, non-self-resolving malignant arrhythmias/rhythms (e.g., ventricular tachycardia/fibrillation) developing during reperfusion were considered terminal (i.e., the experiment was terminated prematurely).
At the completion of the protocol, irreversible myocardial injury (i.e., infarction) resulting from the I/R insult was evaluated. […]

prostate cancer = conditions: cited from earlier work
breast cancer = conditions: cited from earlier work
[5] = Table 2, pH 7.5, read-out: human arginase I pH 7.5, Ki assigned value
[6] = Table 2, pH 9.5, read-out: human arginase I pH 9.5, Ki assigned value
[7] = Table 2, pH 7.5, read-out: human arginase II pH 7.5, Ki assigned value
[8] = Table 2, pH 9.5, read-out: human arginase II pH 9.5, Ki assigned value
[9] = 1 mg/kg iv bolus about 15 min before 30 min ischemia
[10] = 3 mg/kg iv bolus about 15 min before 30 min ischemia
[11] = Table 3, pH 7.5, read-out: human Arginase I pH 7.5, Ki assigned value
[12] = Table 3, pH 9.5, read-out: human Arginase I pH 9.5, Ki assigned value
[13] = Table 3, pH 7.5, read-out: human Arginase II pH 7.5, Ki assigned value
[14] = Table 3, pH 9.5, read-out: human Arginase II pH 9.5, Ki assigned value

SMILES | Ki (human arginase I; [5]) [nM] | Ki (human arginase I; [6]) [nM] | Ki (human arginase II; [7]) [nM] | Ki (human arginase II; [8]) [nM] | increased potency for at least one isozyme (Arg I and/or Arg II) | potency at pH 7.5 as compared to pH 9.5, arginases (Arg I and/or Arg II) | Ki (human arginase I; [11]) [nM] | Ki (human arginase I; [12]) [nM] | Ki (human arginase II; [13]) [nM] | Ki (human arginase II; [14]) [nM] | further results
N[C@@H](CCCCB(O)O)C(=O)O [ABH, 2(S)-amino-6-boronohexanoic acid] | 51 to 100 | 11 to 50 | 101 to 250 | 11 to 50 | no ^b | decrease in inhibitory potency | – | – | – | – | inhibitory potency at pH 7.5 vs pH 9.5 (arginase): much lower at pH 7.5 than at pH 9.5; relaxation of internal anal sphincter muscle [1]: relax this muscle; airway hyperresponsiveness (guinea pigs): prevents airway hyperresponsiveness; NO-dependent relaxation of corpus cavernosum [2]: enhances the NO-dependent relaxation; erectile response (live male rabbits): enhances the erectile response; NO biosynthesis [3]: restores NO biosynthesis; engorgement response in the genitalia (female rabbits): enhances the engorgement response; disease score [4]: improves the disease score
NC(CCCCB(O)O)(CCCC1CCNCC1)C(=O)O (centres unmarked) [Comparative Example 1, reference compound] | 101 to 250 | 11 to 50 | > 400 | < 10 | no ^b | lower potencies | – | – | – | – | –
NC(CCCCB(O)O)(CCCC1CCN(Cc2ccc(Cl)c(Cl)c2)CC1)C(=O)O (centres unmarked) [Comparative Example 2, reference compound] | 101 to 250 | 11 to 50 | 101 to 250 | 11 to 50 | no ^b | decreased potencies | – | – | – | – | –
NC(CCCCB(O)O)(CCCC1CCN(Cc2ccc(F)cc2)CC1)C(=O)O (centres unmarked) [Comparative Example 3, reference compound] | 251 to 400 | 11 to 50 | 251 to 400 | 11 to 50 | no ^b | decreased potencies | – | – | – | – | –
NC(CCCCB(O)O)(CCCN1CCNCC1)C(=O)O (centres unmarked) [Comparative Example 4, 2-Amino-6-borono-2-(3-(piperazine-1-yl)propyl)hexanoic acid trifluoroacetate salt, reference compound] | 11 to 50 | 51 to 100 | > 400 | 11 to 50 | yes ^a | – | – | – | – | – | change of human arginase I inhibitory potency (human arginase I; pH decreased from 9.5 to 7.5): increased potency
NC(CCCCB(O)O)(CCCN1CCN(Cc2ccc(Cl)c(Cl)c2)CC1)C(=O)O (centres unmarked) [Example 8] | < 10 | 11 to 50 | 11 to 50 | 11 to 50 | – | – | – | – | – | – | Mean IA/AR (%) (Rats; [9]): 32%; Mean IA/AR (%) (Rats; [10]): 29%
CS(=O)(=O)c1ccc(CN2CCN(CCCC(N)(CCCCB(O)O)C(=O)O)CC2)cc1 (centres unmarked) [Example 10] | – | – | – | – | – | – | < 10 | 11 to 50 | 11 to 50 | 11 to 50 | Mean IA/AR (%) (Rats; [9]): 24%; Mean IA/AR (%) (Rats; [10]): 22%; Mean IA/AR (%) (Rats; 10 mg/kg iv bolus about 15 min before 30 min ischemia): 17%
NC(CCCCB(O)O)(CCCN1CCC(NC(=O)Nc2ccc(Cl)c(Cl)c2)C1)C(=O)O (centres unmarked) [Example 112] | – | – | – | – | – | – | < 10 | < 10 | < 10 | 11 to 50 | –
NC(CCCCB(O)O)(CCCN1CCC(NS(=O)(=O)c2ccc(Cl)c(Cl)c2)C1)C(=O)O (centres unmarked) [Example 114] | – | – | – | – | – | – | < 10 | 11 to 50 | < 10 | 11 to 50 | –
NC(CCCCB(O)O)(CCCn1cnc2ccccc21)C(=O)O (centres unmarked) [Example 116] | – | – | – | – | – | – | 251 to 400 | 11 to 50 | 11 to 50 | 11 to 50 | –
CN(CCCC(N)(CCCCB(O)O)C(=O)O)Cc1ccc2ccccc2c1 (centres unmarked) [Example 120] | – | – | – | – | – | – | < 10 | 11 to 50 | < 10 | < 10 | –
NC(CCCCB(O)O)(CCCN1CCN(C(=O)c2ccc(Cl)c(Cl)c2)CC1)C(=O)O (centres unmarked) [Example 129, 2-amino-6-borono-(3-(4-(3,4-dichlorobenzoyl)piperazine-1-yl)propyl)hexanoic acid] | – | – | – | – | – | – | 11 to 50 | 51 to 100 | 251 to 400 | 51 to 100 | selectivity for arginase I over arginase II (Arg I and/or Arg II; at pH 7.5 / lower pHs): selectivity for arginase I over arginase II
N=C(NO)NCCC[C@H](N)C(=O)O [N-hydroxy-L-arginine, N^Ω-hydroxy-L-arginine] | – | – | – | – | – | – | – | – | – | – | tumor immunotherapy (prostate cancer): facilitates tumor immunotherapy; cell proliferation and apoptosis (breast cancer): inhibits cell proliferation and induces apoptosis
